Assay results published in patent US20240180803A1, “HYALURONIC ACID-PRODUCTION PROMOTER” (NISSIN FOODS HOLDINGS CO., LTD., priority 2021, published 2024).

Tested on: normal human dermal fibroblasts (NHDF)
Assay: Production capacity evaluation test of hyaluronic acid in cultured cells
Type: cell-based
Conditions: for production capacity of hyaluronic acid with the NC taken as 100%: NHDF, 24 hours, culture supernatant; for Amount of hyaluronic acid produced obtained by subtracting NC / Measured value (amount of hyaluronic acid in the culture supernatant): NHDF culture supernatant; for Measured value (amount of hyaluronic acid in the culture supernatant): NC 942
Description: Reagents were first prepared. […] Next, preparation of cultured cells was performed. In Example, the preparation was performed with normal human dermal fibroblasts (NHDF). First, using Dulbecco's Modified Eagle Medium (DMEM, manufactured by Gibco) to which 10% heat-inactivated FBS (manufactured by Biowest) and penicillin-streptomycin (manufactured by Invitrogen) were added, NHDF was cultured under the conditions of 37° C., 5% CO2. NHDF cells were then seeded to a 24-well plate at 1.0×10^5 cells/well. Thereafter, the NHDF cells were cultured for 72 hours under the conditions mentioned above. After the cell culture, the culture supernatant was replaced with DMEM containing no FBS. […] Note that in cultured cells, the concentration is not related to an absorption rate, which is applied to oral intake. […] After the addition of the reagent or reagents, the cells were cultured for 24 hours under the conditions of 37° C., 5% CO2. The medium was recovered after culturing, and the concentration of the hyaluronic acid in the culture supernatant was measured using Hyaluronan DuoSet Kit (manufactured by R&D Systems). Note that the cell culture without reagent was set as a negative control (NC) in Example. […] Here, the cell culture without reagent was set as a negative control (NC), and the amount (ng/mL) of hyaluronic acid produced was determined by subtracting the amount of hyaluronic acid produced of the NC from the amount of hyaluronic acid produced of each compound with reagent.

CCCCCCCCCCCCCCCCCCCC(=O)O [Arachidic acid, arachidic acid]
production capacity of hyaluronic acid with the NC taken as 100% (0.001 μM final concentration): 111% | production capacity of hyaluronic acid with the NC taken as 100% (0.01 μM final concentration): 122% | production capacity of hyaluronic acid with the NC taken as 100% (0.05 μM final concentration): 102% | production capacity of hyaluronic acid with the NC taken as 100% (0.1 μM final concentration): 107% | production capacity of hyaluronic acid with the NC taken as 100% (1 μM final concentration): 127% | promotion capacity of hyaluronic acid production (in words) (concentrations of 0.01 mM or less and of 1 mM): high promotion capacity of production

O=c1c(-c2ccc(O)cc2)coc2cc(O)ccc12 [Daidzein, daidzein, reference compound]
Amount of hyaluronic acid produced obtained by subtracting NC (final concentration 1 mM): 0 ng/mL | Measured value (amount of hyaluronic acid in the culture supernatant) (final concentration 1 mM): 891 ng/mL

O=C(/C=C/c1ccc(O)cc1)c1ccc(O)cc1O [Isoliquiritigenin, isoliquiritigenin]
production capacity of hyaluronic acid with the NC taken as 100% (0.01 μM final concentration): 142% | production capacity of hyaluronic acid with the NC taken as 100% (0.05 μM final concentration): 138% | production capacity of hyaluronic acid with the NC taken as 100% (1 μM final concentration): 127% | promotion of hyaluronic acid production (in words) (any concentration tested (0.001 to 1 mM)): promotion of hyaluronic acid production was confirmed | promotion capacity of hyaluronic acid production (in words) (concentrations from 0.01 to 0.05 mM): remarkably high promotion capacity of production | amount of hyaluronic acid produced compared with substances having similar chemical structures (in words) (final concentration 1 mM): the highest | Amount of hyaluronic acid produced obtained by subtracting NC (final concentration 1 mM): 562.7006 ng/mL | Measured value (amount of hyaluronic acid in the culture supernatant) (final concentration 1 mM): 1504 ng/mL

O=C1C[C@@H](c2ccc(O)cc2)Oc2cc(O)ccc21 [Liquiritigenin, liquiritigenin, reference compound]
Amount of hyaluronic acid produced obtained by subtracting NC (final concentration 1 mM): 164.725 ng/mL | Measured value (amount of hyaluronic acid in the culture supernatant) (final concentration 1 mM): 1106 ng/mL

O=C(O)/C=C/c1ccc(O)cc1 [trans-p-coumaric Acid, Trans-p-coumaric acid, reference compound]
Amount of hyaluronic acid produced obtained by subtracting NC (final concentration 1 mM): 275.4202 ng/mL | Measured value (amount of hyaluronic acid in the culture supernatant) (final concentration 1 mM): 1217 ng/mL
